Measurements from patent publication US11090304B2 (Amgen Inc., priority 2018, dated 2021).

Each compound was assayed against GDP-bound KRAS protein (aa 1-169), containing both G12C and C118A amino acid substitutions (Homo sapiens, UniProt P01116, C118A/G12C) (assay: Coupled nucleotide exchange assay (SOS-mediated, AlphaScreen)). Settings: 5 min compound pre-incubation.
Assay type: biochemical

GDP-bound KRAS protein (aa 1-169), containing both G12C and C118A amino acid substitutions, sequence (P01116 1-169 isoform P01116-2 G12C/C118A): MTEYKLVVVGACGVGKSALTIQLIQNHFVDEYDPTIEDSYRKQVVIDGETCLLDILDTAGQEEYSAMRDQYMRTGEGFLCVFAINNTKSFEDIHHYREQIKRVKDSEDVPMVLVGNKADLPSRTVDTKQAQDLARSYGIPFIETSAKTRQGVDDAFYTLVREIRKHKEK

Coupled exchange IC50 (5 min)	Structure (SMILES)
2.15 | nda μM	C=CC(=O)N1CCN(c2nc(=O)n(-c3c(C)cccc3C(C)C)c3nc(-c4c(O)cccc4F)c(F)cc23)C[C@@H]1C [Example 63-1, 6-Fluoro-7-(2-fluoro-6-hydroxyphenyl)-1-(2-methyl-6-(2-propanyl)phenyl)-4-((3S)-3-methyl-4-(2-propenoyl)-1-piperazinyl)pyrido[2,3-d]pyrimidin-2(1H)-one]
21.2 | nda μM	C=CC(=O)N1CCN(c2nc(=O)n(-c3c(CC)cccc3CC)c3nc(N4CC[C@H](C)C4)c(Cl)cc23)[C@@H](C)C1 [Example 66-5, 6-chloro-1-(2,6-diethylphenyl)-4-((2S)-2-methyl-4-(2-propenoyl)-1-piperazinyl)-7-((3S)-3-methyl-1-pyrrolidinyl)pyrido[2,3-d]pyrimidin-2(1H)-one]
14.9 | nda μM	C=CC(=O)N1CCN(c2nc(=O)n(-c3c(CC)cccc3CC)c3nc(N4CC[C@H](F)C4)c(Cl)cc23)[C@@H](C)C1 [Example 66-6, 6-chloro-1-(2,6-diethylphenyl)-7-((3S)-3-fluoro-1-pyrrolidinyl)-4-((2S)-2-methyl-4-(2-propenoyl)-1-piperazinyl)pyrido[2,3-d]pyrimidin-2(1H)-one]
88 | nda μM	C=CC(=O)N1CCN(c2nc(=O)n(-c3c(CC)cccc3CC)c3nc(N4CC[C@@H](F)C4)c(Cl)cc23)[C@@H](C)C1 [Example 66-7, 6-chloro-1-(2,6-diethylphenyl)-7-((3R)-3-fluoro-1-pyrrolidinyl)-4-((2S)-2-methyl-4-(2-propenoyl)-1-piperazinyl)pyrido[2,3-d]pyrimidin-2(1H)-one]
65 | nda μM	C=CC(=O)N1CCN(c2nc(=O)n(-c3c(CC)cccc3CC)c3nc(N4CCC(CC(C)C)C4)c(Cl)cc23)[C@@H](C)C1 (stereo partly drawn) [Example 66-12, 6-chloro-1-(2,6-diethylphenyl)-4-((2S)-2-methyl-4-(2-propenoyl)-1-piperazinyl)-7-(3-(2-methylpropyl)-1-pyrrolidinyl)pyrido[2,3-d]pyrimidin-2(1H)-one]

The remaining lines, values behind:

Structure (SMILES)	Coupled exchange IC50 (5 min)
C=CC(=O)N1CCN(c2nc(=O)n(-c3ccccc3C(C)O)c3nc(-c4c(O)cccc4F)c(Cl)cc23)[C@@H](C)C1 (stereo partly drawn) [Example 60-27, 6-chloro-7-(2-fluoro-6-hydroxyphenyl)-1-(2-((1R)-1-hydroxyethyl)phenyl)-4-((2S)-2-methyl-4-(2-propenoyl)-1-piperazinyl)pyrido[2,3-d]pyrimidin-2(1H)-one | 6-chloro-7-(2-fluoro-6-hydroxyphenyl)-1-(2-((1S)-1-hydroxyethyl)phenyl)-4-((2S)-2-methyl-4-(2-propenoyl)-1-piperazinyl)pyrido[2,3-d]pyrimidin-2(1H)-one]	1.3 | nda μM
C=CC(=O)N1CCN(c2nc(=O)n(-c3c(CC)cccc3CC)c3nc(N4CCC[C@@H]4CO)c(Cl)cc23)[C@@H](C)C1 [Example 66-9, 6-chloro-1-(2,6-diethylphenyl)-7-((2R)-2-(hydroxymethyl)-1-pyrrolidinyl)-4-((2S)-2-methyl-4-(2-propenoyl)-1-piperazinyl)pyrido[2,3-d]pyrimidin-2(1H)-one]	99.5 | nda μM
C=CC(=O)N1CCN(c2nc(=O)n(-c3c(CC)cccc3CC)c3nc(N4CCC(C)C4)c(Cl)cc23)[C@@H](C)C1 (stereo partly drawn) [Example 66-10, 6-chloro-1-(2,6-diethylphenyl)-4-((2S)-2-methyl-4-(2-propenoyl)-1-piperazinyl)-7-(3-methyl-1-pyrrolidinyl)pyrido[2,3-d]pyrimidin-2(1H)-one]	26.4 | nda μM
C=CC(=O)N1CCN(c2nc(=O)n(-c3c(CC)cccc3CC)c3nc(N4CCC(CC)C4)c(Cl)cc23)[C@@H](C)C1 (stereo partly drawn) [Example 66-11, 6-chloro-1-(2,6-diethylphenyl)-7-(3-ethyl-1-pyrrolidinyl)-4-((2S)-2-methyl-4-(2-propenoyl)-1-piperazinyl)pyrido[2,3-d]pyrimidin-2(1H)-one]	29 | nda μM
